Columns and labels:
[1] = tested on: Desulfovibrio gabonensis 700201; experiment: H2S and Log (Growth) efficacy against SRB, 96-Well Plate Method; format: cell-based
Description: (§1) A lyophilized Desulfovibrio alaskensis 14563, Desulfovibrio longus 51456, and Desulfovibrio gabonensis 700201 pure cultures received from ATCC were resuspended individually in 500 ul of MB 1250. Aseptically, the content was transferred to a 5-mL tube of MB1250 medium. The cultures were incubated in an anaerobic chamber at 30° C. for 72 hrs. Subsequently, an individual stock culture with a final concentration of 25% glycerol were prepared by adding equal volumes of culture and 50% glycerol. 1 ml of the cultures were then transferred to 2-ml cryogenic vials and stored at −80° C. The purity of the stock cultures was evaluated through PCR, by amplifying the 16S rDNA region, and thus, it was verified that the original ATCC sample was a pure culture. 48-hour cultures of ATCC Desulfovibrio alaskensis 14563, Desulfovibrio longus 51456, and Desulfovibrio gabonensis 700201 were prepared in an anaerobic chamber. Each culture was prepared as a 1:10 culture by taking 1 milliliter (mL) of a pure culture and inoculating 9 milliliters (mL) of fresh MB1250 media. The Desulfovibrio alaskensis 14563 and Desulfovibrio gabonensis 700201 were all grown at 30° C. and the Desulfovibrio longus 51456 culture was grown at 35° C.
(§2) After the 48-hour incubation, 600 microliters (μL) were taken from each culture and optical density (OD) was measured using a Thermofisher Spectronic 200 Spectrophotometer at 600 nm. Each culture was diluted to 0.05 OD600 in fresh MB1250 media and added to the 96 well plates. Edge wells were not used due to their inherent variability and evaporation of the media. Each of the components were added at their respective concentrations for a final volume of 500 μL per well. In Table 3, 6 and 7, the concentrations of the compound used for the experiments are listed. Each experiment was done with at least three replicates for different treatments and non-treatment controls. From these test plates, 200 μL were taken and placed into two separate plates for 3 and 6 days. Plates were then sealed with a titer-top and placed into anaerobic boxes and incubated in an anaerobic incubator at 30° C.
(§3) At each time point, sulfide samples were taken, and enumeration plates were made. Enumeration plates were made to determine the log growth in each dosed sample. For this process, enumeration plates were prepared by adding 180 μL fresh media MB1250 containing 0.01 wt % ferrous ammonium sulfate. 20 μL was taken from each well of the challenge plates and transferred to the enumeration plates using a 20-200 μL multichannel pipette. Enumeration plates were mixed three times using the multichannel pipette and serial diluted down the plate tenfold (20 μL into 180 μL). This serial dilution process was repeated for all challenge plate rows giving a total of 6 enumeration plates.
(§4) After 7 days these enumeration plates were read. The ferrous ammonium sulfate in each plate would be converted to iron sulfide, changing wells with SRB growth from clear to black. By counting the number of black wells in a row, the log growth from the original well in the challenge plate can be determined.
(§5) To determine hydrogen sulfide production in each sample, sulfide samples were also taken from each challenge plate. From each well, 9 μL were taken and added to 60 μL of 2% zinc acetate with 0.02% acetic acid. Then, 180 μL of milliQ water was added. 60 μL of stock solution 1 containing 64% sulfuric acid, <1% Dimethyl-4-phenylenediamine (DMPD), water to 100% was added to each well on the plates. This was followed by 3 μL of stock solution 3 containing 50% Iron (III) chloride. All chemicals are ordered from Fisher Scientific and used as received. These were mixed three times and read after 15 minutes. The plates were read at 670 nm using a Biotek microplate reader. Absorbance readings were converted to mM using a standard curve and this was converted to parts per million using the molar mass of sulfur. […]

[2] = tested on: Desulfovibrio longus 51456; experiment: as above; format: cell-based
Description: as §1, §2, §3, §4, §5

With `O=C(CN1C(=O)c2cccc3cccc(c23)C1=O)NO` [C1] the H2S ([1]; 3 days, 6.4 PPM) was 12.4 PPM, the “Log (Growth)” value ([1]; 3 days, 6.4 PPM) was 0.0 and the H2S ([1]; 3 days, 12.8 PPM) was 12.1 PPM. For the same molecule, the “Log (Growth)” value ([1]; 3 days, 12.8 PPM) was 0.0, the H2S ([1]; 3 days, 25.6 PPM) was 11.1 PPM and the “Log (Growth)” value ([1]; 3 days, 25.6 PPM) was 0.0. For the same molecule, the H2S ([1]; 3 days, 51.3 PPM) was 12.3 PPM, the “Log (Growth)” value ([1]; 3 days, 51.3 PPM) was 0.0 and the H2S ([1]; 3 days, 102.5 PPM) was 10.5 PPM. The “Log (Growth)” value ([1]; 3 days, 102.5 PPM) was 0.0, the H2S ([1]; 3 days, 205.0 PPM) was 10.0 PPM and the “Log (Growth)” value ([1]; 3 days, 205.0 PPM) was 0.0. The H2S ([1]; 6 days, 6.4 PPM) was 18.1 PPM, the “Log (Growth)” value ([1]; 6 days, 6.4 PPM) was 0.0 and the H2S ([1]; 6 days, 12.8 PPM) was 10.4 PPM. For the same molecule, the “Log (Growth)” value ([1]; 6 days, 12.8 PPM) was 0.0, the H2S ([1]; 6 days, 25.6 PPM) was 9.4 PPM and the “Log (Growth)” value ([1]; 6 days, 25.6 PPM) was 0.0. For the same molecule, the H2S ([1]; 6 days, 51.3 PPM) was 8.4 PPM, the “Log (Growth)” value ([1]; 6 days, 51.3 PPM) was 0.0 and the H2S ([1]; 6 days, 102.5 PPM) was 8.6 PPM. The “Log (Growth)” value ([1]; 6 days, 102.5 PPM) was 0.0, the H2S ([1]; 6 days, 205.0 PPM) was 8.5 PPM and the “Log (Growth)” value ([1]; 6 days, 205.0 PPM) was 0.0. The H2S ([2]; 3 days, 6.4 PPM) was 9.8 PPM, the “Log (Growth)” value ([2]; 3 days, 6.4 PPM) was 0.0 and the H2S ([2]; 3 days, 12.8 PPM) was 9.3 PPM. The “Log (Growth)” value ([2]; 3 days, 12.8 PPM) was 0.0, the H2S ([2]; 3 days, 25.6 PPM) was 9.1 PPM and the “Log (Growth)” value ([2]; 3 days, 25.6 PPM) was 0.0. For the same molecule, the H2S ([2]; 3 days, 51.3 PPM) was 8.8 PPM, the “Log (Growth)” value ([2]; 3 days, 51.3 PPM) was 0.0 and the H2S ([2]; 3 days, 102.5 PPM) was 8.6 PPM. The “Log (Growth)” value ([2]; 3 days, 102.5 PPM) was 0.0, the H2S ([2]; 3 days, 205.0 PPM) was 8.7 PPM and the “Log (Growth)” value ([2]; 3 days, 205.0 PPM) was 0.0. The H2S ([2]; 6 days, 6.4 PPM) was 8.1 PPM, the “Log (Growth)” value ([2]; 6 days, 6.4 PPM) was 0.0 and the H2S ([2]; 6 days, 12.8 PPM) was 7.9 PPM. The “Log (Growth)” value ([2]; 6 days, 12.8 PPM) was 0.0, the H2S ([2]; 6 days, 25.6 PPM) was 7.3 PPM and the “Log (Growth)” value ([2]; 6 days, 25.6 PPM) was 0.0. For the same molecule, the H2S ([2]; 6 days, 51.3 PPM) was 7.2 PPM, the “Log (Growth)” value ([2]; 6 days, 51.3 PPM) was 0.0 and the H2S ([2]; 6 days, 102.5 PPM) was 7.5 PPM. For the same molecule, the “Log (Growth)” value ([2]; 6 days, 102.5 PPM) was 0.0, the H2S ([2]; 6 days, 205.0 PPM) was 8.1 PPM and the “Log (Growth)” value ([2]; 6 days, 205.0 PPM) was 0.0.

Source: patent US20230183640A1, “METABOLIC INHIBITORS WITH EFFICACY FOR INHIBITING SULFIDE PRODUCTION IN HARSH ENVIRONMENTS” (MC (US) 3 LLC, priority 2020, published 2023)
